Experimental data reported in ChEMBL document CHEMBL2417394, “Exquisite selectivity for human toll-like receptor 8 in substituted furo[2,3-c]quinolines” (J Med Chem, 2013).
Values belong to the molecule of their own block, whether it stands above or below them. The source made the active and inactive calls. The calls are words filed in the database; no cut-off is given here.

What was measured:
[1] = target: T1, Toll-like receptor 8 (Homo sapiens) (UniProt Q9NR97); assay: Agonist activity at human TLR8 expressed in HEK293 cells co-transfected with MD2 and sAP assessed as induction of NF-kappaB activity by reporter gene assay; assay type: cell-based
T1 sequence (whole entry): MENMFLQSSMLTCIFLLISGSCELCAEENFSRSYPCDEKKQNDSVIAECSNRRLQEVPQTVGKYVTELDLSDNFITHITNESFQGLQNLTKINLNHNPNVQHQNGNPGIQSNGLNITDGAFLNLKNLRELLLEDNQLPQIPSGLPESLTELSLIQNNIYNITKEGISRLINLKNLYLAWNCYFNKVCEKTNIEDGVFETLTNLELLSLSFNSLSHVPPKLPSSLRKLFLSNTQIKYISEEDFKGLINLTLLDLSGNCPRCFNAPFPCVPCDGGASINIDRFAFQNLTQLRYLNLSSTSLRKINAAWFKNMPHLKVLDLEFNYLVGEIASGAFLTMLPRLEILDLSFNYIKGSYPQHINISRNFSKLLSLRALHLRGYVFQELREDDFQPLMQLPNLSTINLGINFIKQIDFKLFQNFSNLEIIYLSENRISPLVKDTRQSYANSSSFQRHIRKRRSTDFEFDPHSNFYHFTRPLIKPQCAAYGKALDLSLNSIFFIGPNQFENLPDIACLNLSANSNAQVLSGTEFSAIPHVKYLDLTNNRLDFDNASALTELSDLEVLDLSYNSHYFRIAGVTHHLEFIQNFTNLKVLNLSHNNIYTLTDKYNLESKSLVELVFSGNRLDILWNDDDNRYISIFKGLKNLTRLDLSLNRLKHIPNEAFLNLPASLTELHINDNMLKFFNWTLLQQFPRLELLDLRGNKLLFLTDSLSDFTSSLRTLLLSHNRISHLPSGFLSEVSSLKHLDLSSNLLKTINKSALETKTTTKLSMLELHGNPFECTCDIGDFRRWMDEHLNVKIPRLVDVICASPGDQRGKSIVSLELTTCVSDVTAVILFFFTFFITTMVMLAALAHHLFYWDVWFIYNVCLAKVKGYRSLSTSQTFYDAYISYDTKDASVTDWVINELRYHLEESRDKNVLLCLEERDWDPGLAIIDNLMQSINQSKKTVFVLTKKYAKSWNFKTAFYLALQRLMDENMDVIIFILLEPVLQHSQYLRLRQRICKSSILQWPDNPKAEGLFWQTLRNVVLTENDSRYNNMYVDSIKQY

[2] = target: T1, Toll-like receptor 8 (Homo sapiens); assay: Modulation of human TLR8 expressed in HEK293 cells co-transfected with MD2 and sAP assessed as induction of NF-kappaB activity by reporter gene assay; assay type: cell-based
[3] = target: T2, Toll-like receptor 9 (Homo sapiens) (UniProt Q9NR96); assay: Modulation of human TLR9 expressed in HEK293 cells co-transfected with MD2 and sAP assessed as induction of NF-kappaB activity by reporter gene assay; assay type: cell-based
T2 sequence (whole entry): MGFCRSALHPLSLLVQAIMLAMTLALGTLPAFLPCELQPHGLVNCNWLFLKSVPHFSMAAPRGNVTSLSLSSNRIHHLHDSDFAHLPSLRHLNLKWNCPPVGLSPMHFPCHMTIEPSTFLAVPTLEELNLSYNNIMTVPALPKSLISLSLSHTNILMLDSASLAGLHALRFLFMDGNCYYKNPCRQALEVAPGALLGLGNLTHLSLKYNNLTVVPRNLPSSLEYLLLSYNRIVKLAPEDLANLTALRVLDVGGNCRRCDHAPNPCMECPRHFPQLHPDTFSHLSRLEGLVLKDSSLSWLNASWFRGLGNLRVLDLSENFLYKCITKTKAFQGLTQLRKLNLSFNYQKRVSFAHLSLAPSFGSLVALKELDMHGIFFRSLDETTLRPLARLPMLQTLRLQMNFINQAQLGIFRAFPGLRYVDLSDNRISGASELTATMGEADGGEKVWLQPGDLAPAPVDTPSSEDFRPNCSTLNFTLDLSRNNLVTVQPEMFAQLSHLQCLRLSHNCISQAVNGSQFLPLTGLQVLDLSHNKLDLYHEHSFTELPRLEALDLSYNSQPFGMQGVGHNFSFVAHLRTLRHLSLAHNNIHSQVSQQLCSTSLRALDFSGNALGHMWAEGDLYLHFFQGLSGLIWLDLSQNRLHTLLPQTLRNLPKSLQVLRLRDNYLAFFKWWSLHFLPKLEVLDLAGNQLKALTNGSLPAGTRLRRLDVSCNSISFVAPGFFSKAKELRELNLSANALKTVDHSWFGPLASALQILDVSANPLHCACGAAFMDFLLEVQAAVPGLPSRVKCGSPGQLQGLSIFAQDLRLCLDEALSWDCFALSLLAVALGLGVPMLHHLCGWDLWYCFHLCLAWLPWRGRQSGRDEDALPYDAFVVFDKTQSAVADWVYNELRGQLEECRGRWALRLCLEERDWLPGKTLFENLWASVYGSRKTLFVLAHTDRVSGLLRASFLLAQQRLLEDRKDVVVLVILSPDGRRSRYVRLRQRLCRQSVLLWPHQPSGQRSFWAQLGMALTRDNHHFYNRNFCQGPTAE

[4] = target: Nucleotide-binding oligomerization domain-containing protein 2 (Homo sapiens) (UniProt Q9HC29); assay: Modulation of NOD2 (unknown origin)
Nucleotide-binding oligomerization domain-containing protein 2 (Homo sapiens), sequence (Q9HC29 whole entry, the tested form may be a part): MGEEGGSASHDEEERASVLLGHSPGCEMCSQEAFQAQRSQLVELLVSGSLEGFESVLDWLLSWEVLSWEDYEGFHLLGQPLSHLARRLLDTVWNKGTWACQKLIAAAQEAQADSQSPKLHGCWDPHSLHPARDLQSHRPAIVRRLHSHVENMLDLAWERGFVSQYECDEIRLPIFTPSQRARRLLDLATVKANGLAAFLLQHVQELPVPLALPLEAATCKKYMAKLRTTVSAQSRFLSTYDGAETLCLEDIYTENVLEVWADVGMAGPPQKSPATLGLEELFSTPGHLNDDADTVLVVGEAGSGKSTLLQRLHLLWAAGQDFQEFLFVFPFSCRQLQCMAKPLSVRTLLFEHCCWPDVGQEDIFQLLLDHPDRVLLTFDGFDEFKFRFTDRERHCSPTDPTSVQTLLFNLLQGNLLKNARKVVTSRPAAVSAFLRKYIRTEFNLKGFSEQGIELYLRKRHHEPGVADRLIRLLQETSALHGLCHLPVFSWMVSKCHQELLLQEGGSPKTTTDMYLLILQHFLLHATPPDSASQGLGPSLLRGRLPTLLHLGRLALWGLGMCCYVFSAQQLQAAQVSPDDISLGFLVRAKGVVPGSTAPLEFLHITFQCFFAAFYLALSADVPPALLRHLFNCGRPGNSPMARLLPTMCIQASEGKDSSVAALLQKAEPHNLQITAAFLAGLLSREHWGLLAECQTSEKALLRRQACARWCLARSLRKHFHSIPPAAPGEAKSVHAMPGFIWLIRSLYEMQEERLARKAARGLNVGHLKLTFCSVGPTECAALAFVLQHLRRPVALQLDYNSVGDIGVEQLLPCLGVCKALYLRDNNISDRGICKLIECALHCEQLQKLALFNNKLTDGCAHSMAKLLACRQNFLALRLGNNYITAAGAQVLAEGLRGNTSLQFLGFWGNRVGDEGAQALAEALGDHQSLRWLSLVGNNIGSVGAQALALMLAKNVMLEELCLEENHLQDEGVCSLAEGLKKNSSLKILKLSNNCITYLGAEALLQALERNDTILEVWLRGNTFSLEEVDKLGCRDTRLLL

[5] = target: T3, Nucleotide-binding oligomerization domain-containing protein 1 (Homo sapiens) (UniProt Q9Y239); assay: Modulation of NOD1 (unknown origin)
T3 sequence (whole entry): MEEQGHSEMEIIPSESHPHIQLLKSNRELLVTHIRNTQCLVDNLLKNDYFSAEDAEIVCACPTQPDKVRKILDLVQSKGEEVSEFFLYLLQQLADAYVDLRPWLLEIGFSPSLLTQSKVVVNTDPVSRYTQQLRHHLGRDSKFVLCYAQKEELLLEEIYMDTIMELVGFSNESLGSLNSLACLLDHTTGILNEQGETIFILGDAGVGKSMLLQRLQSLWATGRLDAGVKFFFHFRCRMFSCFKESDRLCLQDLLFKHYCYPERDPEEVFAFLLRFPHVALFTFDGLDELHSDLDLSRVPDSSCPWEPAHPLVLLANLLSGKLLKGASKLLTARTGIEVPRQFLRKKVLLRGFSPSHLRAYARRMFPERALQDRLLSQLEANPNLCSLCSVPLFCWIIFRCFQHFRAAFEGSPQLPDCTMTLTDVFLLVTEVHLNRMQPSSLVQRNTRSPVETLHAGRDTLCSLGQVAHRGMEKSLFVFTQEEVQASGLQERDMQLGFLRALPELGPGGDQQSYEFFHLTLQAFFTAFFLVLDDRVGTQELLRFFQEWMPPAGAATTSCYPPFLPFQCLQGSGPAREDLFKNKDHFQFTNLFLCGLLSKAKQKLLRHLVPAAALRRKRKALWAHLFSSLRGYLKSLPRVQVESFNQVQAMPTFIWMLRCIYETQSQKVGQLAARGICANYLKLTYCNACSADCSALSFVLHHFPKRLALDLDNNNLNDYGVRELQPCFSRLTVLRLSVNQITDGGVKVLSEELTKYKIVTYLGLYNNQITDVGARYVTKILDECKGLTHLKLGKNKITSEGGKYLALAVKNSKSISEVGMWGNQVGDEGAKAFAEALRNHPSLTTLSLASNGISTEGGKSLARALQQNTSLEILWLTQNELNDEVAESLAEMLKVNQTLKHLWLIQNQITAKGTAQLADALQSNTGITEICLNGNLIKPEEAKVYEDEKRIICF

[6] = target: T1, Toll-like receptor 8 (Homo sapiens); assay: Agonist activity at TLR8 in human PBMC assessed as increase of MIP1beta level after 12 hrs
[7] = target: T1, Toll-like receptor 8 (Homo sapiens); assay: Agonist activity at TLR8 in human PBMC assessed as increase of GRO level after 12 hrs
[8] = target: T1, Toll-like receptor 8 (Homo sapiens); assay: Agonist activity at TLR8 in human PBMC assessed as increase of MIP1alpha level after 12 hrs
[9] = target: T1, Toll-like receptor 8 (Homo sapiens); assay: Agonist activity at TLR8 in human PBMC assessed as increase of G-CSF level after 12 hrs

Structure (SMILES): Cc1cc2c(o1)c(N)nc1ccccc12
Activity [1]: Active | Activity [2]: Active

Structure (SMILES): CCCCc1cc2c(o1)c(N)nc1ccccc12
Activity [3]: Active | Activity [4]: Active | Activity [5]: Active

Structure (SMILES): CCCc1nc2c(N)nc3ccccc3c2s1
Activity [6]: Active | Activity [7]: Active | Activity [8]: Active | Activity [9]: Active

Structure (SMILES): CCCCc1nc2c(N)nc3ccccc3c2n1Cc1ccccc1
Activity [6]: inactive | Activity [7]: inactive | Activity [8]: inactive | Activity [9]: inactive

Structure (SMILES): Nc1nc2ccccc2c2ccoc12
Activity [1]: inactive

More lines, now with the values ahead:

Activity [1]: Active | Activity [2]: Active
Structure (SMILES): CCCCCCc1cc2c(o1)c(N)nc1ccccc12

Activity [1]: Active | Activity [2]: Active
Structure (SMILES): CCCc1cc2c(o1)c(N)nc1ccccc12

Activity [1]: Active | Activity [2]: Active
Structure (SMILES): CCCCCc1cc2c(o1)c(N)nc1ccccc12
